Consider 12 compounds from patent publication US20260364068A1, “ANTIVIRAL USE OF HETEROARYL DERIVATIVE COMPOUND” (UIF (University Industry Foundation), Yonsei University, priority 2022, published 2026).

Like-named read-outs stand apart in the source and are kept apart here.

What all share (format): cell-based
For one data set, the target named is T1, human ANO6 (variant 5) (Homo sapiens, UniProt Q4KMQ2).
T1 construct: expressed in transfected cells; host or cells: Fisher rat thyroid (FRT) cells
T1 sequence (Q4KMQ2 1-931 isoform Q4KMQ2-2): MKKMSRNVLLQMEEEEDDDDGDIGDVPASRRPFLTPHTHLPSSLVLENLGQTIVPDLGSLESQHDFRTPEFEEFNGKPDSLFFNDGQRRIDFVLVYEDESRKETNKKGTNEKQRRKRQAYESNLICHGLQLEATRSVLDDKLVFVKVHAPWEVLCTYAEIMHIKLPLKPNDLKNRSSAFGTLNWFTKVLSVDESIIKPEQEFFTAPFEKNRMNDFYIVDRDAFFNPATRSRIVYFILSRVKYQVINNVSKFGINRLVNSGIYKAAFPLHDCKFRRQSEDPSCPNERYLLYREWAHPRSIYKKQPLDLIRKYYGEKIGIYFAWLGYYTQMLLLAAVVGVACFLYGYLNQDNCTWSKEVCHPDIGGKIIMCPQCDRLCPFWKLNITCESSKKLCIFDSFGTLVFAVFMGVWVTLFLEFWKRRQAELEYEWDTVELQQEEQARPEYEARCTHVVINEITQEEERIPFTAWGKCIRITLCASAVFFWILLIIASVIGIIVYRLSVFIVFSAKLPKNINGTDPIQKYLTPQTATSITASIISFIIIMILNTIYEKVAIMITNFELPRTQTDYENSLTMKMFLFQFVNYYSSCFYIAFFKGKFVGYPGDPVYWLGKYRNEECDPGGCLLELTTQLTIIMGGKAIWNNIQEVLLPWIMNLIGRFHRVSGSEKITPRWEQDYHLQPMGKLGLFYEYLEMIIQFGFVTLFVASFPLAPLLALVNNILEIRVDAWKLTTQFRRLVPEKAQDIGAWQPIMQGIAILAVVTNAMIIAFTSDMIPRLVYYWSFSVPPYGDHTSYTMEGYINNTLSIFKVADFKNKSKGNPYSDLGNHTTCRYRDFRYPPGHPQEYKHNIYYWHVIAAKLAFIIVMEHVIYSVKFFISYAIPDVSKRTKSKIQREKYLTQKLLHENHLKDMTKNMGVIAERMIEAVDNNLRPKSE
Nature of the data set: Lact C2 assay (phosphatidylserine externalization scramblase function). To be noted: FRT cells expressing human ANO6, ionomycin 10 μM, read-out: % Inhibition (phosphatidylserine externalization inhibitory activity); for inhibition at 0.05 µM: 50 nM. The method, then:
Experimental Example 2: Lact C2 Assay (Measuring Phosphatidylserine Externalization Scramblase Function)
Ionomycin (Alomonelab, cat. #I-700), DAPI (Sigma-Aldrich, cat. #D8417), paraformaldehyde (Biosesang, cat. #P2031), Lionheart FX automated fluorescence microscope (BioTek), Gen5™ software program (BioTek), and Image J analysis software program.
Fisher rat thyroid (FRT) cells expressing human ANO6 (variant 5; GenBank accession no. NP_001191732.1) were cultured at 37 °C under 5% CO2 conditions in DMEM/Ham's F-12 (1:1) medium supplemented with 10% Fetal Bovine Serum, 2 mM […], 100 units/mL penicillin, and 100 μg/mL streptomycin.
Fischer Rat Thyroid (FRT) cells (2×10^4 cells/well) expressing human ANO6 (variant 5) were cultured in a 96-well microplate for 24 hours. After the incubation, the cells were treated with compounds dissolved in DMSO to 1% v/v in each well at each concentration (50 nM, 100 nM, and 1 μM) and reacted for 10 minutes. Thereafter, each well was treated with ionomycin to a final concentration of 10 μM, allowed to react for 10 minutes, and then washed with 200 μL PBS. After washing, each well was treated with 50 μL of Lactadherin-C2 (Lact-C2)-GFP mixed in DMEM medium to a final concentration of 500 nM to stain phosphatidylserine, and cultured at 37 °C for 10 minutes. After completion of the reaction, the cells were washed with 200 μL PBS, and fixed with 4% paraformaldehyde for 5 minutes at room temperature. For morphological analysis, DAPI solution was added, and the cells were incubated for 15 minutes, followed by washing with PBS. The fluorescence intensity of Lact-C2-GFP bound to phosphatidylserine on the cell surface was measured using an automated fluorescence microscope. For quantitative analysis of the fluorescence intensity of Lact-C2-GFP, BioTek Gen5™ software and Image J analysis software programs were used.
Phosphatidylserine externalization inhibitory activity (%) by the compound was calculated through the following analysis method. Specifically, the background fluorescence value was subtracted from the measured Lact-C2-GFP fluorescence value, and the fluorescence value of the ionomycin non-treatment group and the ionomycin-treatment group in the same row where each test group was located in a 96-well microplate were calculated. In order to calculate the inhibitory activity (%) by the compound, the relative inhibitory activity was calculated by setting the compound and ionomycin non-treatment group to 100% inhibitory activity and the ionomycin alone treatment group to 0% inhibitory activity. To derive the results, the test was repeated three times, and the average values of the results were classified according to the range below and shown in Table 4 below (A: >60% inhibition, B: 30 to 60% inhibition, N/A: no test).

Data set [1] is described as follows: Cell viability measurement (MTS), Calu-3 cells. Conditions: human. The procedure, abridged:
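Calu-3 cells at about 20% confluency treated with compounds at 1, 3 and 10 μM (0.5% v/v DMSO) for 48 h at 37 °C. MTS added for 1 h; A490 minus A690 background, normalized to DMSO control as 100%; mean of 2–6 repeats, binned into viability ranges.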

Data set [2] in a line: Cell viability measurement (MTS), Vero cells. To be noted: monkey. The method, then: Experimental Example 3: Cell Viability Measurement
Vero cell line (VERO01WCB-1201, Ministry of Food and Drug Safety, Republic of Korea), Calu-3 cell line (KCLB #30055, Korea Cell Line Bank (KCLB), Republic of Korea), CellTiter 96® AQueous One Solution Cell Proliferation Assay kit (Promega, cat. #G3582), and Infinite M200 microplate reader (Tecan).
Vero cells were cultured at 37 °C and 5% CO2 in DMEM medium supplemented with 10% fetal bovine serum, 100 units/mL penicillin, and 100 μg/mL streptomycin.
Vero cells or Calu-3 cells were seeded in 96-well microplates and cultured for 24 hours until the cell confluency reached 20%. After the incubation, compounds were treated in DMSO at concentrations (1, 3, and 10 μM) to reach 0.5% v/v in each well, and reacted at 37 °C for 48 hours. Into each well of the incubated 96-well microplate, 3-(4,5-dimethylthiazol-2-yl)-5-(3-carboxymethoxyphenyl)-2-(4-sulfophenyl)-2H-tetrazolium salt (MTS) assay solution [CellTiter 96® AQueous One Solution Cell Proliferation Assay kit (Promega)] mixed with DMEM medium at a ratio of 1:5, was dispensed at 100 μL/well and incubated at 37 °C for 1 hour. The 490 nm and 690 nm absorbance was then measured using an Infinite M200 instrument.
The cell viability (also, referred to as cell survival rate) (%) by compound treatment was calculated using the following analysis method. The 690 nm background absorbance value was subtracted from the measured 490 nm absorbance value. Then, to obtain the cell viability of each test group, the viability of the DMSO-treated group that was not treated with the compound was set to 100% and then the relative viability 1 of each compound was calculated. Two to six repeated tests were performed to obtain the results, and the mean values of the results were categorized into the following ranges and shown in Table 5 below (A: 80% survived, B: 50-80% survived, N/A: not tested)

In data set [3] the test system is Severe Acute Respiratory Syndrome Coronavirus Type 2. Nature of the data set: microbe, parasite or virus in culture. Conditions: Vero, 10 uM, read-out: Virus replication inhibition efficacy.
For data set [4] the test system is unchanged. Nature of the data set: microbe, parasite or virus in culture. To be noted: Calu-3, 10 uM, read-out: Virus replication inhibition efficacy.
[5] abbreviates: virus strain NCCP-43344, 48 hours.
[6] abbreviates: virus strain NCCP-43388, 48 hours.

The inhibition is the drop in the measured response relative to a control, in per cent. What is called viability is the share of living cells, or the viability signal relative to a control. A lower viability goes with a greater loss of cells. For the compound `Fc1cc2[nH]c(-c3cccc(Nc4cnc(-c5ccccn5)cn4)c3)nc2cn1` [Example 330, N-(3-(6-fluoro-1H-imidazo[4,5-c]pyridin-2-yl)phenyl)-5-(pyridin-2-yl)pyrazin-2-amine], the inhibition at 1 µM at human ANO6 (variant 5) is over 60%. This compound came in with a viability at 48 h, 10 µM in data set [1] of over 80%.
Turning to `FC(F)Oc1cc2[nH]c(-c3cccc(Nc4ncc(-c5ccccn5)cn4)c3)nc2cn1` [Example 329, N-(3-(6-(difluoromethoxy)-1H-imidazo[4,5-c]pyridin-2-yl)phenyl)-5-(pyridin-2-yl)pyrimidin-2-amine], at human ANO6 (variant 5), the inhibition at 0.05 µM was over 60% and the inhibition at 1 µM is over 60%. This compound also had a viability at 48 h, 10 µM in data set [1] of 50 to 80%.
Regarding `Fc1ccc2nc(-c3cccc(Nc4ncc(-c5cccnn5)cn4)c3)[nH]c2c1` [Example 51, N-(3-(6-fluoro-1H-benzo[d]imidazol-2-yl)phenyl)-5-(pyridazin-3-yl)pyrimidin-2-amine], the inhibition at 0.05 µM on human ANO6 (variant 5) fell in the range of 30 to 60%. Moreover, in data set [1], the viability at 48 h, 1 µM was over 80%; the viability at 48 h, 3 µM is over 80%; the viability at 48 h, 10 µM is over 80%.
Take `FC(F)(F)c1ccc2nc(-c3cccc(NC4CCC(c5cccnn5)CC4)c3)[nH]c2c1` (mixture of isomers) [Example 124, N-(4-(pyridazin-3-yl)cyclohexyl)-3-(6-(trifluoromethyl)-1H-benzo[d]imidazol-2-yl)aniline]: the inhibition at 1 µM at human ANO6 (variant 5) was in the range of 30 to 60%.
As for `COc1cc2nc(-c3cccc(Nc4ncc(-c5cccnn5)cn4)c3)[nH]c2cc1F` [Example 121, N-[3-(6-fluoro-5-methoxy-1H-benzo[d]imidazol-2-yl)phenyl]-5-pyridazin-3-yl-pyrimidin-2-amine], the inhibition at 1 µM at human ANO6 (variant 5) fell in the range of 30 to 60%.
As to `FC(F)Oc1ccc2nc(-c3cccc(Nc4ccc(-c5cccnn5)cc4)c3)[nH]c2c1` [Example 335, 3-(6-(difluoromethoxy)-1H-benzo[d]imidazol-2-yl)-N-(4-(pyridazin-3-yl)phenyl)aniline], at human ANO6 (variant 5), the inhibition at 0.05 µM is over 60% and the inhibition at 1 µM is over 60%.
Consider `FC(F)(F)c1ccc2nc(-c3cccc(Nc4ccc(-c5ccncn5)cc4)c3)[nH]c2c1` [Example 24, N-(4-(pyrimidin-4-yl)phenyl)-3-(6-(trifluoromethyl)-1H-benzo[d]imidazol-2-yl)aniline], for which the viability at 48 h, 1 µM in data set [2] and in data set [1] was over 80% in each case. For the same compound, in data set [2], the viability at 48 h, 3 µM was over 80%. Besides, the inhibition at 10 µM in data set [3] (setting [5]) and in data set [4] (setting [5]) was over 60% in each case.
`c1ccc(-c2ccc(Nc3cccc(-c4nc5ccccc5[nH]4)c3)nn2)cc1` [Example 2, N-(3-(1H-benzo[d]imidazol-2-yl)phenyl)-6-phenylpyridazin-3-amine]: the viability at 48 h, 1 µM in data set [2] is over 80%; in data set [1], 50 to 80%. The compound also returned a viability at 48 h, 3 µM in data set [2] of over 80%. The compound further came in with a viability at 48 h, 10 µM in data set [2] of 50 to 80%. Besides, the inhibition at 10 µM in data set [3] (setting [6]) and in data set [4] (setting [6]) was over 60% each time.
For the compound `FC(F)(F)Oc1ccc2nc(-c3cccc(Nc4cnc(-c5ccccn5)cn4)c3)[nH]c2c1` [Example 325, 5-(pyridin-2-yl)-N-(3-(6-(trifluoromethoxy)-1H-benzo[d]imidazol-2-yl)phenyl)pyrazin-2-amine], on human ANO6 (variant 5), the inhibition at 1 µM is over 60%.
Turning to `FC(F)(F)c1cc2[nH]c(-c3cccc(Nc4cnc(-c5ccccn5)cn4)c3)nc2cn1` [Example 328, 5-(pyridin-2-yl)-N-(3-(6-(trifluoromethyl)-1H-imidazo[4,5-c]pyridin-2-yl)phenyl)pyrazin-2-amine], the inhibition at 1 µM at human ANO6 (variant 5) was over 60%.
In data set [2], `c1cnc(-c2ccc(Nc3cccc(-c4nc5ccccc5[nH]4)c3)cc2)nc1` [Example 26, N-[3-(1H-benzo[d]imidazol-2-yl)phenyl]-4-(pyrimidin-2-yl)aniline] came in with a viability at 48 h, 1 µM of over 80% and a viability at 48 h, 10 µM of over 80%. Further, in data set [1], the viability at 48 h, 1 µM was over 80% and the viability at 48 h, 3 µM was in the range of 50 to 80%. Moreover, the inhibition at 10 µM in data set [3] (setting [5]) was over 60%. Further, the inhibition at 10 µM in data set [4] (setting [5]) is over 60%.
With `c1cc(Nc2ccc(-c3ccncn3)cc2)cc(-c2nc3ccccc3[nH]2)c1` [Example 22, N-[3-(1H-benzo[d]imidazol-2-yl)phenyl]-4-(pyrimidin-4-yl)aniline], in data set [2], the viability at 48 h, 1 µM is over 80%; the viability at 48 h, 3 µM is over 80%; the viability at 48 h, 10 µM is 50 to 80%. In addition, the viability at 48 h, 1 µM in data set [1] was over 80%. Moreover, the inhibition at 10 µM in data set [3] (setting [5]) was over 60%. In data set [4] (setting [5]), the inhibition at 10 µM is over 60%.
